# Experimental data from patent US20110288036A1, “Methods for Treating or Preventing Vascular Graft Failure” (priority 2010, published 2011).
# Columns and labels:
# MKK3 = MKK3 (Homo sapiens, UniProt P46734); test: MKK3 kinase activity (data not shown); assay type: biochemical; conditions: at concentration inhibiting greater than 95% of MK2 activity
# Description: A commercial radiometric assay service was used to test the specificity and potency of MMI-0100 ([…]; SEQ ID NO: 1) by measuring its half maximal inhibitory concentrations (IC50). This quantitative assay measures how much MK2 inhibitor (MMI-0100; […] (SEQ ID NO: 1)) is needed to inhibit 50% of a given biological process or component of a process (i.e., an enzyme, cell, or cell receptor). Specifically, in these assays, a positively charged substrate is phosphorylated with a radiolabeled phosphate group from an ATP if the kinase is not inhibited by an inhibitor peptide. The positively charged substrate then is attracted to a negatively charged filter membrane, quantified with a scintillation counter, and compared to a 100% activity control. ATP concentrations within 15 μM of the apparent Km for ATP were chosen since an ATP concentration near the Km may allow for the kinases to have the same relative amount of phosphorylation activity. […]
# IC50 values for inhibitor peptides were determined using Millipore's IC50 Profiler Express service. […]
# In order to determine the level of specificity for inhibiting MK2, the effect of MMI-0100 ([…]; SEQ ID NO: 1) on other kinases within the MAPK family and within the p38MAPK pathway was evaluated at concentrations of MMI-0100 ([…]; SEQ ID NO: 1) that inhibit greater than 95% of MK2 activity in vitro. […]
# [1] = test system: human endothelial cell (EC); test: MTS cell proliferation assay, endothelial cells; assay type: cell-based; conditions: pre-treatment 20 ng/ml TNF-α
# Experimental: Primary human aortic endothelial cells (HAEC) and primary human aortic smooth muscle cells (HASMC) were obtained from Invitrogen; primary human coronary artery endothelial cells (HCAEC) were obtained from Lonza.
# All cultures were maintained in 25 cm^2 polystyrene tissue culture flasks in a 37° C., 5% CO2/95% air environment, with cell culture media refreshed every other day. All cells were seeded at a density of 20,000˜30,000 cells/cm^2, as required by the specific experiment, and allowed to grow to 80-90% confluence before being harvested/passaged. Only cells from early passages (numbers 2-8) were utilized in experiments.
# The CellTiter 96® AQueous Non-Radioactive Cell Proliferation Assay (Promega) was used to assess drug effects on cell proliferation according to the manufacturer's instructions. Briefly, HAECs and HASMCs from early passages were grown to 80-90% confluence in 25 cm^2 tissue culture flasks in a 37° C./5% CO2 incubator prior to harvest. 200 μl of each type of cell suspension (at 20,000 cells/cm^2) was seeded onto separate 96-well plates to yield an approximate 60% confluence per well. Cells were allowed to adhere to the plate surface overnight, followed by addition of 20 ng/ml of TNF-α to stimulate production of inflammatory agents. After a 4-6 hour incubation period, MMI-0100 peptide drug ([…]; SEQ ID NO: 1) was added and cells incubated for another 20-24 hours. Each well was then supplemented with 100 μl of fresh medium and 20 μl of CellTiter 96® AQueous One Solution Reagent and incubated for an additional 1.5-2 hours prior to measuring absorbance of each well at 490 nm with a SoftMax®-equipped plate reader.
# In order to determine the effect of pharmacological doses of MMI-0100 ([…]; SEQ ID NO: 1) on human endothelial cell (EC) and smooth muscle cell (SMC) proliferation, human EC and SMC cultures were treated with three concentrations (0.25 mM, 0.5 mM, and 1 mM) of MMI-0100 ([…] (SEQ ID NO: 1)) following pre-treatment with TNF-α.
# MKK3, sequence (P46734 whole entry, species assumed): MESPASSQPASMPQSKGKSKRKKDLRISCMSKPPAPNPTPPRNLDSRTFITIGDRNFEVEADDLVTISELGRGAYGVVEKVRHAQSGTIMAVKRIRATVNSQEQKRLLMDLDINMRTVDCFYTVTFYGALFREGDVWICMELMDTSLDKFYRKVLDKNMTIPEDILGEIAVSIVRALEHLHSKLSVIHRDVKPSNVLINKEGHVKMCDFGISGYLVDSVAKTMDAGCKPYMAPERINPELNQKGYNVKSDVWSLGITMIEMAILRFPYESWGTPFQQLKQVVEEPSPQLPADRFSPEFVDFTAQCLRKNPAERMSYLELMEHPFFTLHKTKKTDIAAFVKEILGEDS
sequence,measurement,setting,value
YARAAARQARAKALARQLGVAA [MMI-0100],MKK3 activity,MKK3,no reduction
same,EC proliferation vs TNF-α alone control,[1]; 0.25 mM,slightly increased cell proliferation
same,increase in EC proliferation vs TNF-α alone control,[1]; 0.5 mM,30%
same,increase in EC proliferation vs TNF-α alone control,[1]; 1 mM,11%
